The text below walks through data of patent publication US20250163104A1, “MACROCYCLIC IMMUNOMODULATORS” (priority 2021, published 2025).

The structures appear in SMILES notation. Like-named read-outs stand apart in the source and are kept apart here. Where a SMILES comes first, the peptide text is derived from it. Bridges are numbered along the chain shown (N, C = ends). [ ]: non-standard residue; d: D form. The star is where a group is joined. ξ: configuration not given here. Phe(4-CONH2) = NC(=O)c1ccc(C[C@H](N)C(=O)O)cc1; Phe(4-COOH) = N[C@@H](Cc1ccc(C(=O)O)cc1)C(=O)O; Bip = N[C@@H](Cc1ccc(-c2ccccc2)cc1)C(=O)O; Phe(3-Me) = Cc1cccc(C[C@H](N)C(=O)O)c1; Val(3-OH) = CC(C)(O)[C@H](N)C(=O)O; Hyp = O=C(O)[C@@H]1C[C@@H](O)CN1; 4Pal = N[C@@H](Cc1ccncc1)C(=O)O; Cha = N[C@@H](CC1CCCCC1)C(=O)O; Thr(3ξ) = CC(O)[C@H](N)C(=O)O; Carboxymethyl = O=C(O)C*; Orn = NCCC[C@H](N)C(=O)O; Dab = NCC[C@H](N)C(=O)O; Dap = NC[C@H](N)C(=O)O; ξPra = C#CCC(N)C(=O)O; Bn = c1ccc(C*)cc1; Propargyl = C#CC*

This assay has as its target T1, human PD-1 / PD-L1-Ig binding on Jurkat cell line over-expressing human PD-1 (Jurkat-PD-1) (Homo sapiens, UniProt Q15116).
T1 construct: expressed in transfected cells; host or cells: Jurkat
In words: Jurkat-PD-1 Cell Binding High-Content Screening Assay (CBA). In kind it is cell-based. As to conditions: PE-labeled PD-L1-Ig 20 nM final. Put shortly:
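Cell-bound PE-labeled PD-L1-Ig (20 nM final, 1 h) measured by high-content imaging after fixation and Hoechst 33342 counterstain. Compound was applied first for 2 h at 37° C. to Jurkat cells over-expressing human PD-1 in DMEM with 10% FCS.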

Setting [1] is: Jurkat-PD-1 cells, read-out: Jurkat HPD1_PDL1 IC50.
[2] abbreviates: Jurkat HPD1_PDL1 IC50, Jurkat-PD-1 cells.

T1 sequence (Q15116 25-288): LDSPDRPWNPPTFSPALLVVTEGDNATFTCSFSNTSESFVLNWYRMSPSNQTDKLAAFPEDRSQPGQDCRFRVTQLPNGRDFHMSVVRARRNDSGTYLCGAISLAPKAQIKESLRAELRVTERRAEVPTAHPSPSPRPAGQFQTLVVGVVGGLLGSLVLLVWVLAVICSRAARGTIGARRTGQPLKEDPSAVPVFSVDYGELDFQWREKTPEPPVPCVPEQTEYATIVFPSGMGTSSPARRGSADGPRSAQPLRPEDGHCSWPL

As to `C#CCOc1ccc(C[C@@H]2NC(=O)[C@H](Cc3cccc(C)c3)NC(=O)[C@H](CC(=O)O)NC(=O)[C@H](Cc3ccc(OCC(=O)O)cc3)NC(=O)[C@H](Cc3ccc(OCC(=O)O)cc3)NC(=O)CSC[C@@H](C(=O)N[C@@H](CCN)C(N)=O)NC(=O)[C@H](CCC(=O)O)NC(=O)[C@H](C(C)C)NC(=O)[C@H](CC3CCCCC3)NC(=O)[C@H](CCN)NC(=O)[C@@H](CC(C)C)NC(=O)[C@H](CCCN)NC(=O)[C@H](Cc3ccc(OCC(=O)O)cc3)NC(=O)[C@H](Cc3ccc(-c4ccccc4)cc3)NC2=O)cc1` [Compound 1834] ({CH2CO}-Y(Carboxymethyl)Y(Carboxymethyl)D[Phe(3-Me)]Y(Propargyl)[Bip]Y(Carboxymethyl)[Orn][dL][Dab][Cha]VEC[Dab]-NH2; thioether N-14), the IC50 (usually the midpoint of a concentration-inhibition curve) under setting [1] was 3.3 nM.
The same measure, in the same setting: then `Cc1cccc(C[C@@H]2NC(=O)[C@H](CC(=O)O)NC(=O)[C@H](Cc3ccncc3)NC(=O)[C@H](Cc3ccc(OCC(=O)O)cc3)NC(=O)CSC[C@@H](C(=O)N[C@@H](C)C(N)=O)NC(=O)[C@H]([C@@H](C)O)NC(=O)[C@H](C(C)C)NC(=O)[C@H](CC3CCCCC3)NC(=O)[C@H](CCN)NC(=O)[C@@H](CC(C)C)NC(=O)[C@H](CCCN)NC(=O)[C@H](CCC(=O)O)NC(=O)[C@H](Cc3ccc(-c4ccccc4)cc3)NC(=O)[C@H](C(C)C)NC2=O)c1` [Compound 1419] ({CH2CO}-Y(Carboxymethyl)[4Pal]D[Phe(3-Me)]V[Bip]E[Orn][dL][Dab][Cha]VTCA-NH2; thioether N-14), with 7.2 nM; and `C#CCC(NC(=O)[C@H](CCCCN)NC(=O)[C@@H]1CSCC(=O)N[C@@H](Cc2ccncc2)C(=O)N[C@@H](Cc2ccc(OCC(=O)O)cc2)C(=O)N[C@@H](CC(=O)O)C(=O)N[C@@H](Cc2c[nH]c3ccccc23)C(=O)N[C@@H](C(C)C)C(=O)N[C@@H](Cc2ccc(-c3ccccc3)cc2)C(=O)N[C@@H]([C@@H](C)CC)C(=O)N[C@@H](CCCN)C(=O)N[C@H](CC(C)C)C(=O)N[C@@H](CCN)C(=O)N[C@@H](CC(C)C)C(=O)N[C@@H](C(C)C)C(=O)N[C@@H]([C@@H](C)O)C(=O)N1)C(N)=O` (stereo partly drawn) [Compound 1761] ({CH2CO}-[4Pal]Y(Carboxymethyl)DWV[Bip]I[Orn][dL][Dab]LVTCK[ξPra]-NH2; thioether N-14), with 13.9 nM.
For the molecule `Cc1cccc(C[C@@H]2NC(=O)[C@H](CC(=O)O)NC(=O)[C@H](Cc3ccc(OCC(=O)O)cc3)NC(=O)[C@@H]3C[C@@H](O)CN3C(=O)CSC[C@@H](C(=O)N[C@@H](CCN)C(N)=O)NC(=O)[C@H](CO)NC(=O)[C@H](C(C)(C)O)NC(=O)[C@H](CC3CCCCC3)NC(=O)[C@H](CCN)NC(=O)[C@@H](CC(C)C)NC(=O)[C@H](CCCN)NC(=O)[C@H](Cc3ccc(OCC(=O)O)cc3)NC(=O)[C@H](Cc3ccc(-c4ccccc4)cc3)NC(=O)[C@H](Cc3ccc(OCC(=O)O)cc3)NC2=O)c1` [Compound 2059] ({CH2CO}-[Hyp]Y(Carboxymethyl)D[Phe(3-Me)]Y(Carboxymethyl)[Bip]Y(Carboxymethyl)[Orn][dL][Dab][Cha][Val(3-OH)]SC[Dab]-NH2; thioether N-14), the IC50 under setting [1] was found to be 356 nM.
On the same count and under the same terms, then `CC(C)C[C@H]1NC(=O)[C@H](CCCN)NC(=O)[C@H](CCC(=O)O)NC(=O)[C@H](Cc2ccc(-c3ccccc3)cc2)NC(=O)[C@H](C(C)C)NC(=O)[C@H](Cc2c[nH]c3ccccc23)NC(=O)[C@H](CC(=O)O)NC(=O)[C@H](Cc2ccc(N)cc2)NC(=O)[C@H](Cc2ccncc2)NC(=O)CSC[C@@H](C(=O)N[C@@H](C)C(N)=O)NC(=O)[C@H]([C@@H](C)O)NC(=O)[C@H](C(C)C)NC(=O)[C@H](CC2CCCCC2)NC(=O)[C@H](CCN)NC1=O` [Compound 2184], with 28.5 nM; and `Cc1cccc(C[C@@H]2NC(=O)[C@H](CC(=O)O)NC(=O)[C@H](Cc3ccc(OCC(=O)O)cc3)NC(=O)[C@H](Cc3ccncc3)NC(=O)CSC[C@@H](C(=O)NCC(N)=O)NC(=O)[C@H](CO)NC(=O)[C@H](C(C)C)NC(=O)[C@H](CC(C)C)NC(=O)[C@H](CCN)NC(=O)[C@@H](CC(C)C)NC(=O)[C@H](CCCN)NC(=O)[C@H](C(C)C)NC(=O)[C@H](Cc3ccc(-c4ccccc4)cc3)NC(=O)[C@H](CC(C)C)NC2=O)c1` [Compound 1263] ({CH2CO}-[4Pal]Y(Carboxymethyl)D[Phe(3-Me)]L[Bip]V[Orn][dL][Dab]LVSCG-NH2; thioether N-14), with 6.2 nM.
On the same count and under the same terms, then `CC(C)C[C@H]1NC(=O)[C@H](CCCN)NC(=O)[C@H](CCC(=O)O)NC(=O)[C@H](Cc2ccc(-c3ccccc3)cc2)NC(=O)[C@H](C(C)C)NC(=O)[C@H](Cc2c[nH]c3ccccc23)NC(=O)[C@H](COCc2ccccc2)NC(=O)[C@H](Cc2ccc(OCC(=O)O)cc2)NC(=O)[C@H](CN)NC(=O)CSC[C@@H](C(=O)N[C@@H](C)C(N)=O)NC(=O)[C@H]([C@@H](C)O)NC(=O)[C@H](C(C)C)NC(=O)[C@H](CC2CCCCC2)NC(=O)[C@H](CCN)NC1=O` [Compound 1497] ({CH2CO}-[Dap]Y(Carboxymethyl)S(Bn)WV[Bip]E[Orn][dL][Dab][Cha]VTCA-NH2; thioether N-14), with 344 nM; and `Cc1cccc(C[C@@H]2NC(=O)[C@H](CC(=O)O)NC(=O)[C@H](Cc3ccc(C(=O)O)cc3)NC(=O)[C@H](Cc3ccncc3)NC(=O)CSC[C@@H](C(=O)N[C@@H](CCN)C(N)=O)NC(=O)[C@H](CCC(=O)O)NC(=O)[C@H](C(C)(C)O)NC(=O)[C@H](CC3CCCCC3)NC(=O)[C@H](CCN)NC(=O)[C@@H](CC(C)C)NC(=O)[C@H](CCCN)NC(=O)[C@H](Cc3ccc(OCC(=O)O)cc3)NC(=O)[C@H](Cc3ccc(-c4ccccc4)cc3)NC(=O)[C@H](Cc3ccc(OCC(=O)O)cc3)NC2=O)c1` [Compound 2330] ({CH2CO}-[4Pal][Phe(4-COOH)]D[Phe(3-Me)]Y(Carboxymethyl)[Bip]Y(Carboxymethyl)[Orn][dL][Dab][Cha][Val(3-OH)]EC[Dab]-NH2; thioether N-14), with 249 nM.
`Cc1cccc(C[C@@H]2NC(=O)[C@H](CC(=O)O)NC(=O)[C@H](Cc3ccc(OCC(=O)O)cc3)NC(=O)[C@H](C(C)O)NC(=O)CSC[C@@H](C(=O)N[C@H](CC(N)=O)C(N)=O)NC(=O)[C@H](CO)NC(=O)[C@H](C(C)(C)O)NC(=O)[C@H](CC3CCCCC3)NC(=O)[C@H](CCN)NC(=O)[C@@H](CC(C)C)NC(=O)[C@H](CCCN)NC(=O)[C@H](Cc3ccc(O)cc3)NC(=O)[C@H](Cc3ccc(-c4ccccc4)cc3)NC(=O)[C@H](Cc3ccc(C(N)=O)cc3)NC2=O)c1` (stereo partly drawn) [Compound 2658] ({CH2CO}-[Thr(3ξ)]Y(Carboxymethyl)D[Phe(3-Me)][Phe(4-CONH2)][Bip]Y[Orn][dL][Dab][Cha][Val(3-OH)]SC[dN]-NH2; thioether N-14): the IC50 under setting [1] was 25.9 nM.
Regarding `CC(C)C[C@H]1NC(=O)[C@H](CCCN)NC(=O)[C@H](CCC(=O)O)NC(=O)[C@H](Cc2ccc(-c3ccccc3)cc2)NC(=O)[C@H](C(C)C)NC(=O)[C@H](Cc2ccccc2F)NC(=O)[C@H](CC(=O)O)NC(=O)[C@H](Cc2ccc(C#N)cc2)NC(=O)[C@H](Cc2ccc(OCC(=O)O)cc2)NC(=O)CSC[C@@H](C(=O)N[C@@H](C)C(N)=O)NC(=O)[C@H]([C@@H](C)O)NC(=O)[C@H](C(C)C)NC(=O)[C@H](CC2CCCCC2)NC(=O)[C@H](CCN)NC1=O` [Compound 2215], the IC50 under setting [1] is 30.4 nM.
With `CC(C)C[C@@H]1NC(=O)[C@H](Cc2c[nH]c3ccccc23)NC(=O)[C@H](CC(=O)O)NC(=O)[C@H](Cc2ccc(O)cc2)NC(=O)[C@H](Cc2ccccc2)NC(=O)CSC[C@@H](C(=O)NCC(N)=O)NC(=O)[C@H]([C@@H](C)O)NC(=O)[C@H](C(C)C)NC(=O)[C@H](CC(C)C)NC(=O)[C@H](CC(N)=O)NC(=O)[C@@H](C)NC(=O)[C@H](CCN)NC(=O)[C@H](C(C)C)NC(=O)[C@H](Cc2ccc(-c3ccccc3)cc2)NC1=O` [Compound 1099] ({CH2CO}-FYDWL[Bip]V[Dab][dA]NLVTCG-NH2; thioether N-14), under setting [2], the IC50 came out at 84.5 nM.
The same measure, in the same setting: then `CC[C@H](C)[C@@H]1NC(=O)[C@H](Cc2ccc(-c3ccccc3)cc2)NC(=O)[C@H](C(C)C)NC(=O)[C@H](Cc2c[nH]c3ccccc23)NC(=O)[C@H](CC(=O)O)NC(=O)[C@H](Cc2ccc(OCC(=O)O)cc2)NC(=O)[C@H](Cc2ccc(OCC(=O)O)cc2)NC(=O)CSC[C@@H](C(=O)N[C@@H](C)C(N)=O)NC(=O)[C@H]([C@@H](C)O)NC(=O)[C@H](C(C)C)NC(=O)[C@H](CC2CCCCC2)NC(=O)[C@H](Cc2c[nH]cn2)NC(=O)[C@@H](CC(C)C)NC(=O)[C@H](CCCN)NC1=O` [Compound 1592], with 31.5 nM.
Regarding `CC(C)C[C@@H]1NC(=O)[C@H](CCN)NC(=O)[C@@H](CC(C)C)NC(=O)[C@H](CCCN)NC(=O)[C@H](CCCNC(=N)N)NC(=O)[C@H](Cc2ccc(-c3ccccc3)cc2)NC(=O)[C@H](C(C)C)NC(=O)[C@H](Cc2c[nH]c3ccccc23)NC(=O)[C@H](CC(=O)O)NC(=O)[C@H](Cc2ccc(OCC(=O)O)cc2)NC(=O)[C@H](Cc2ccncc2)NC(=O)CSC[C@@H](C(=O)N[C@@H](C)C(N)=O)NC(=O)[C@H]([C@@H](C)O)NC(=O)[C@H](C(C)C)NC1=O` [Compound 1242] ({CH2CO}-[4Pal]Y(Carboxymethyl)DWV[Bip]R[Orn][dL][Dab]LVTCA-NH2; thioether N-14), the IC50 under setting [1] came to 28.9 nM.
As for `CC(C)C[C@@H]1NC(=O)[C@H](Cc2c[nH]c3ccccc23)NC(=O)[C@H](CC(=O)O)NC(=O)[C@H](Cc2ccc(OCC(=O)O)cc2)NC(=O)[C@H](C(C)O)NC(=O)CSC[C@@H](C(=O)N[C@@H](CC(N)=O)C(N)=O)NC(=O)[C@H](CO)NC(=O)[C@H](C(C)C)NC(=O)[C@H](CC2CCCCC2)NC(=O)[C@H](CCN)NC(=O)[C@@H](CC(C)C)NC(=O)[C@H](CCCN)NC(=O)[C@H](C(C)O)NC(=O)[C@H](Cc2ccc(-c3ccccc3)cc2)NC1=O` (stereo partly drawn) [Compound 2559] ({CH2CO}-[Thr(3ξ)]Y(Carboxymethyl)DWL[Bip][Thr(3ξ)][Orn][dL][Dab][Cha]VSCN-NH2; thioether N-14), the IC50 under setting [1] worked out at 24.8 nM.
